Measured values published in US8877707B2, “Inhibitors of HCV NS5A” (Presidio Pharmaceuticals, Inc., priority 2010, dated 2014).

These compounds were tested on HCV genotype 1b replicon in Huh 7 cells (assay: HCV replicon assay (1b_Huh-Luc/Neo-ET cell line, luciferase readout)). Conditions: Hepatitis C virus, Huh-7; HCV 1b replicon; read-out: Inhibition of HCV genotype 1b.
Assay type: cell-based
Method in brief: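 Huh 7 cells carrying a bicistronic genotype 1b luciferase replicon were treated with compound in triplicate the day after plating and incubated 72 h. Luciferase activity expressed as % of untreated control; EC50 from a four-parameter logistic fit, repeated several times.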

`COC(=O)N[C@@H](C(=O)N1CCC[C@H]1CNC(=O)c1ccc(-c2ccc3cc(-c4cnc([C@@H]5CCCN5C(=O)[C@H](NC(=O)OC)c5ccccc5)[nH]4)ccc3n2)cc1)c1ccccc1` [compound 545] and `COC(=O)N[C@@H](C(=O)N1CCC[C@H]1C(=O)NCc1ccc(-c2ccc3cc(-c4cnc([C@@H]5CCCN5C(=O)[C@H](NC(=O)OC)c5ccccc5)[nH]4)ccc3n2)cc1)c1ccccc1` [compound 547] cannot be ordered by EC50: < 1 nM for the first, < 1 nM for the second.

`COC(=O)N[C@H](C(=O)N1CCC[C@H]1C(=O)N[C@H](C)c1ccc(-c2ccc3cc(-c4cnc([C@@H]5CCCN5C(=O)[C@@H](NC(=O)OC)C(C)C)[nH]4)ccc3c2)cc1)C(C)C` [compound 561] and `COC(=O)N[C@H](C(=O)N1CCC[C@H]1C(=O)NCc1ccc(-c2ccc3cc(-c4cnc([C@@H]5CCCN5C(=O)[C@@H](NC(=O)OC)C(C)C)[nH]4)ccc3c2)cc1)C(C)C` [compound 567] fall in the same range of EC50: 10 to 999 nM for the first, 10 to 999 nM for the second.

`COC(=O)N[C@@H](CC(C)C)C(=O)N1CCC[C@H]1c1ncc(-c2ccc3nc(-c4ccc(-c5cnc([C@@H]6CCCN6C(=O)[C@H](NC(=O)OC)c6ccccc6)[nH]5)c(F)c4)ccc3c2)[nH]1` [compound 467] and `COC(=O)N[C@H](C(=O)N1CCC[C@H]1c1ncc(-c2ccc3cc(-c4ccc(-c5cnc([C@@H]6CCCN6C(=O)[C@H](NC(=O)OC)c6ccccc6)[nH]5)nn4)ccc3c2)[nH]1)[C@@H](C)O` [compound 501] cannot be ordered by EC50: < 1 nM for the first, < 1 nM for the second.

`COC(=O)N[C@H](C(=O)N1CCC[C@H]1c1ncc(-c2ccc3cc(-c4ccc5nc([C@@H]6CCCN6C(=O)[C@@H](NC(=O)OC)C6CCCCC6)[nH]c5n4)ccc3c2)[nH]1)C1CCCCC1` [compound 517] and `CC[C@@H](C)[C@H](NC(=O)OC)C(=O)N1CCC[C@H]1c1ncc(-c2ccc3cc(-c4ccc5nc([C@@H]6CCCN6C(=O)[C@@H](NC(=O)OC)[C@H](C)CC)[nH]c5n4)ccc3c2)[nH]1` [compound 522] cannot be ordered by EC50: < 1 nM for the first, < 1 nM for the second.

`COC(=O)N[C@@H](C(=O)N1CCC[C@H]1C(=O)Nc1ccc(-c2ccc3cc(-c4cnc([C@@H]5CCCN5C(=O)[C@H](NC(=O)OC)c5ccccc5)[nH]4)ccc3n2)cc1)c1ccccc1` [compound 543] and `COC(=O)N[C@H](C(=O)N1CCC[C@H]1c1nc2ccc(-c3ccc4cc(-c5cnc([C@@H]6CCCN6C(=O)[C@@H](NC(=O)OC)[C@@H](C)OC)[nH]5)ccc4c3)cc2[nH]1)C(C)C` [compound 510] cannot be ordered by EC50: < 1 nM for the first, < 1 nM for the second.

`COC(=O)NC(C(=O)N1CCC[C@H]1c1ncc(-c2ccc3cc(-c4ccc5nc([C@@H]6CCCN6C(=O)C(NC(=O)OC)=C(C)C)[nH]c5c4)ccc3c2)[nH]1)=C(C)C` [compound 512] and `COC(=O)N[C@H](C(=O)N1CCC[C@H]1c1ncc(-c2ccc(-c3ccc4cc(-c5cnc([C@@H]6CSCN6C(=O)[C@@H](NC(=O)OC)C(C)C)[nH]5)ccc4c3)cc2)[nH]1)C(C)C` [compound 451] cannot be ordered by EC50: < 1 nM for the first, < 1 nM for the second.

In the case of `COC(=O)N[C@H](C(=O)N1CCN(C(=O)OC)C[C@H]1c1ncc(-c2ccc(-c3ccc4cc(-c5cnc([C@@H]6CCCN6C(=O)[C@@H](NC(=O)OC)C6CCOCC6)[nH]5)ccc4n3)cc2)[nH]1)C(C)C` [compound 470], the EC50 is reported as < 1 nM.

Same assay, conditions: Hepatitis C virus; Table 1; genotype 1b replicon, Huh 7 cells, 72 h, luciferase; read-out: Inhibition of HCV genotype 1b

`COC(=O)N[C@H](C(=O)N1CCC[C@H]1c1ncc(-c2ccc3cc(-c4ccc(-c5cnc([C@@H]6CCCN6C(=O)[C@H](NC(=O)OC6CCOCC6)c6ccccc6)[nH]5)cc4F)ncc3c2)[nH]1)C(C)C` [compound 153] and `COC(=O)N[C@H](C(=O)N1CCC[C@H]1c1ncc(-c2ccc(-c3ccc4cc(-c5cnc([C@@H]6CCCN6C(=O)[C@H](NC(=O)OC)c6ccccc6)[nH]5)ccc4n3)cc2F)[nH]1)C(C)C` [compound 124] cannot be ordered by EC50: < 1 nM for the first, < 1 nM for the second.

`COC(=O)N[C@H](C(=O)N1CCC[C@H]1c1nc2ccc(-c3ccc4nc(-c5cnc([C@@H]6CCCN6C(=O)[C@H](NC(=O)OC)c6ccccc6)[nH]5)ccc4c3)cc2[nH]1)C(C)C` [compound 210] and `COC(=O)N[C@H](C(=O)N1CCC[C@H]1c1nc(-c2ccc3cc(-c4ccc(-c5cnc([C@@H]6CCCN6C(=O)[C@H](NC(=O)OC)c6ccccc6)[nH]5)cc4)ccc3c2)c[nH]1)C(C)C` [compound 8] cannot be ordered by EC50: < 1 nM for the first, < 1 nM for the second.

`COC(=O)N[C@H](C(=O)N1CCC[C@H]1c1ncc(-c2ccc(-c3ccc4cc(-c5c[nH]c([C@@H]6CCCN6C(=O)[C@@H](NC(=O)OC)C6CCOCC6)n5)cnc4c3)cc2)[nH]1)C(C)C` [compound 50] and `COC(=O)N[C@H](C(=O)N1CCC[C@H]1c1nc(-c2ccc3cc(-c4ccc(-c5cnc([C@@H]6CCCN6C(=O)[C@@H](NC(=O)OC)C6CCOCC6)[nH]5)nc4)ccc3c2)c[nH]1)C(C)C` [compound 84] cannot be ordered by EC50: < 1 nM for the first, < 1 nM for the second.

Compared with `COC(=O)N[C@H](C(=O)N1CCC[C@H]1c1nc2ccc(-c3ccc4cc(-c5ccc6nc([C@@H]7CCCN7C(=O)[C@@H](NC(=O)OC)C7CCOCC7)[nH]c6n5)ccc4c3)nc2[nH]1)C1CCOCC1` [compound 284], `COC(=O)N[C@H](C(=O)N1CCC[C@H]1c1ncc(-c2ccc(-c3ccc4cc(-c5cnc([C@@H]6CCCN6C(=O)[C@@H](NC(=O)OC)C6CCOCC6)[nH]5)ccc4c3)cc2)[nH]1)C1CCOCC1` [compound 133] is lower in EC50: 1 to 9.9 nM for the first, < 1 nM for the second. The second is the more potent here.

`COC(=O)N[C@H](C(=O)N1CCC[C@H]1c1nc(-c2ccc3cc(-c4ccc(-c5cnc([C@@H]6CCCN6C(=O)[C@H](NC(=O)OC)c6ccsc6)[nH]5)cc4)ccc3c2)c[nH]1)C1CCOCC1` [compound 110] and `COC(=O)N[C@H](C(=O)N1CCC[C@H]1c1ncc(-c2ccc(-c3ccc4cc(-c5c[nH]c([C@@H]6CCCN6C(=O)[C@H](NC(=O)OC)c6ccccc6)n5)ccc4c3)cc2)[nH]1)C(C)C` [compound 7] cannot be ordered by EC50: < 1 nM for the first, < 1 nM for the second.

`COC(=O)N[C@@H](C(=O)N1CCC[C@H]1c1nc(-c2cnc3cc(-c4ccc(-c5cnc([C@@H]6CCCN6C(=O)[C@H](NC(=O)OC)c6ccccc6)[nH]5)cn4)ccc3c2)c[nH]1)c1ccccc1` [compound 80] and `CNC(=O)N[C@@H](C(=O)N1CCC[C@H]1c1ncc(-c2ccc(-c3ccc4cc(-c5c[nH]c([C@@H]6CCCN6C(=O)[C@@H](NC(=O)OC)C(C)C)n5)ccc4n3)cc2)[nH]1)c1ccccc1` [compound 31] cannot be ordered by EC50: < 1 nM for the first, < 1 nM for the second.

`COC(=O)N[C@H](C(=O)N1CCOC[C@H]1c1ncc(-c2ccc3cc(-c4ccc5nc([C@@H]6CCCN6C(=O)[C@@H](NC(=O)OC)C6CCOCC6)[nH]c5c4)ccc3c2)[nH]1)C(C)C` [compound 221] and `COC(=O)N[C@H](C(=O)N1CCOC[C@H]1c1ncc(-c2ccc3cc(-c4ccc5nc([C@@H]6COCCN6C(=O)[C@@H](NC(=O)OC)C(C)C)[nH]c5c4)ccc3c2)[nH]1)C(C)C` [compound 224] cannot be ordered by EC50: < 1 nM for the first, < 1 nM for the second.

`COC(=O)N[C@H](C(=O)N1CCC[C@H]1c1ncc(-c2ccc(-c3ccc4cc(-c5c[nH]c([C@@H]6CCCN6C(=O)[C@H](NC(=O)NC6CC6)c6ccccc6)n5)ccc4n3)cc2)[nH]1)C(C)C` [compound 38] and `CCNC(=O)N[C@@H](C(=O)N1CCC[C@H]1c1nc(-c2ccc3cc(-c4ccc(-c5cnc([C@@H]6CCCN6C(=O)[C@@H](NC(=O)OC)C(C)C)[nH]5)cc4)ccc3c2)c[nH]1)c1ccccc1` [compound 28] cannot be ordered by EC50: < 1 nM for the first, < 1 nM for the second.

First: COC(=O)N[C@H](C(=O)N1CCC[C@H]1c1ncc(-c2ccc(N3Cc4cc(-c5cnc([C@@H]6CCCN6C(=O)[C@@H](NC(=O)OC)C(C)C)[nH]5)ccc4C3=O)cc2)[nH]1)C(C)C [compound 290]
Second: COC(=O)N[C@H](C(=O)N1CCC[C@H]1c1ncc(-c2ccc(-c3cnc4ccc(-c5cnc([C@@H]6CCCN6C(=O)[C@@H](NC(=O)OC)C(C)C)[nH]5)cc4n3)cc2)[nH]1)C(C)C [compound 12]
The EC50 of the first is lower: < 1 nM for the first, 1 to 9.9 nM for the second.

`COC(=O)N[C@H](C(=O)N1C[C@H](O)C[C@H]1c1ncc(-c2ccc(-c3ccc4cc(-c5cnc([C@@H]6CCCN6C(=O)[C@H](NC(=O)OC6CCOCC6)c6ccccc6)[nH]5)ccc4n3)cc2)[nH]1)C(C)C` [compound 149] and `COC(=O)N[C@H](C(=O)N1CCC[C@H]1c1ncc(-c2ccc3cc(-c4ccc5nc([C@@H]6CCCN6C(=O)[C@H](NC(=O)N6CC[C@H](O)C6)c6ccccc6)[nH]c5c4)ccc3c2)[nH]1)C(C)C` [compound 185] cannot be ordered by EC50: < 1 nM for the first, < 1 nM for the second.

`COC(=O)N[C@H](C(=O)N1CCC[C@H]1c1nc(-c2ccc3[nH]c(-c4ccc(-c5cnc([C@@H]6CCCN6C(=O)[C@@H](NC(=O)OC)C(C)C)[nH]5)cc4)cc(=O)c3c2)c[nH]1)C(C)C` [compound 76] and `COC(=O)N[C@H](C(=O)N1CCC[C@H]1c1nc2ccc(-c3cccc4c(-c5ccc6nc([C@@H]7CCCN7C(=O)[C@@H](NC(=O)OC)C(C)C)[nH]c6c5)cccc34)cc2[nH]1)C(C)C` [compound 277] cannot be ordered by EC50: < 1 nM for the first, < 1 nM for the second.

`COC(=O)N[C@H](C(=O)N1CCC[C@H]1c1nc(-c2cnc3cc(-c4ccc(-c5cnc([C@@H]6CCCN6C(=O)[C@@H](NC(=O)OC)C6CCOCC6)[nH]5)cn4)ccc3c2)c[nH]1)C1CCOCC1` [compound 75] and `COC(=O)N[C@H](C(=O)N1CCC[C@H]1c1ncc(-c2ccc3oc(-c4ccc(-c5cnc([C@@H]6CCCN6C(=O)[C@@H](NC(=O)OC)C6CCOCC6)[nH]5)cc4)nc3c2)[nH]1)C(C)C` [compound 259] cannot be ordered by EC50: < 1 nM for the first, < 1 nM for the second.

With `COC(=O)N[C@H](C(=O)N1CCOC[C@H]1c1ncc(-c2ccc(-c3ccc4cc(-c5cnc([C@@H]6COCCN6C(=O)[C@@H](NC(=O)OC)C(C)C)[nH]5)ccc4c3)cc2)[nH]1)C(C)C` [compound 170] the EC50 was < 1 nM.

Same assay, conditions: Hepatitis C virus; Table 2; genotype 1b replicon, Huh 7 cells, 72 h, luciferase; read-out: Inhibition of HCV genotype 1b

First: COC(=O)N[C@H](C(=O)N1CCC[C@H]1c1ncc(-c2ccc3cc(-c4ccc5nc([C@@H]6CCCN6C(=O)[C@@H](NC(=O)OC)C6CCCCC6)[nH]c5c4)ccc3c2)[nH]1)C1CCCCC1 [compound 348]
Second: COC(=O)N[C@H](C(=O)N1CCC[C@H]1c1ncc(-c2ccc3cc(-c4cnc5nc([C@@H]6CCCN6C(=O)[C@@H](NC(=O)OC)C(C)C)[nH]c5c4)ccc3c2)[nH]1)C(C)C [compound 402]
The EC50 of the first is lower: < 1 nM for the first, 1 to 9.9 nM for the second.

In the case of `COC(=O)N[C@H](C(=O)N1CCC[C@H]1c1ncc(-c2ccc3cc(-c4cc5[nH]c([C@@H]6CCCN6C(=O)[C@@H](NC(=O)OC)[C@@H](C)OC)nc5cn4)ccc3c2)[nH]1)[C@@H](C)OC` [compound 415], the EC50 is reported as < 1 nM.
